Measured values published in patent US11759455B2, “Substituted 1H-imidazo[4,5-b]pyridin-2(3H)-ones and their use as GLUN2B receptor modulators” (JANSSEN PHARMACEUTICA NV, priority 2016, dated 2023).
Like-named read-outs stand apart in the source and are kept apart here.

Key:
[1] = molecular target: T1, human GluN1/GluN2B NMDA receptors (Homo sapiens, UniProt Q05586+Q13224); experiment: Cell-based calcium flux (FLIPR) assay on cloned human NR1/NR2B ion channels expressed in mammalian cells (standard and HTS buffer variants);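 also: stable Tet-On inducible cell line, Ca2+ influx triggered by glutamate at about EC40 plus 10 µM glycine, fluorescent dye read-out over 5 min, normalized to control wells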
T1 construct: expressed in transfected cells

[2] = molecular target: T2, human GluN1/GluN2B NMDA receptors (Homo sapiens, UniProt Q13224); experiment: as above
T2 construct: expressed in transfected cells

[3] = standard assay buffer (0.5 mM MgCl2 dye loading; 137 mM NaCl, 4 mM KCl assay buffer), human GluN1/GluN2B cells, read-out: NR2B IC50 (μM) standard assay
[4] = standard assay buffer (0.5 mM MgCl2 in dye loading buffer; 137 mM NaCl, 4 mM KCl in assay buffer), human GluN1/GluN2B, read-out: NR2B IC50 (μM) standard assay

T2 sequence (Q13224 27-1484, other chains not shown): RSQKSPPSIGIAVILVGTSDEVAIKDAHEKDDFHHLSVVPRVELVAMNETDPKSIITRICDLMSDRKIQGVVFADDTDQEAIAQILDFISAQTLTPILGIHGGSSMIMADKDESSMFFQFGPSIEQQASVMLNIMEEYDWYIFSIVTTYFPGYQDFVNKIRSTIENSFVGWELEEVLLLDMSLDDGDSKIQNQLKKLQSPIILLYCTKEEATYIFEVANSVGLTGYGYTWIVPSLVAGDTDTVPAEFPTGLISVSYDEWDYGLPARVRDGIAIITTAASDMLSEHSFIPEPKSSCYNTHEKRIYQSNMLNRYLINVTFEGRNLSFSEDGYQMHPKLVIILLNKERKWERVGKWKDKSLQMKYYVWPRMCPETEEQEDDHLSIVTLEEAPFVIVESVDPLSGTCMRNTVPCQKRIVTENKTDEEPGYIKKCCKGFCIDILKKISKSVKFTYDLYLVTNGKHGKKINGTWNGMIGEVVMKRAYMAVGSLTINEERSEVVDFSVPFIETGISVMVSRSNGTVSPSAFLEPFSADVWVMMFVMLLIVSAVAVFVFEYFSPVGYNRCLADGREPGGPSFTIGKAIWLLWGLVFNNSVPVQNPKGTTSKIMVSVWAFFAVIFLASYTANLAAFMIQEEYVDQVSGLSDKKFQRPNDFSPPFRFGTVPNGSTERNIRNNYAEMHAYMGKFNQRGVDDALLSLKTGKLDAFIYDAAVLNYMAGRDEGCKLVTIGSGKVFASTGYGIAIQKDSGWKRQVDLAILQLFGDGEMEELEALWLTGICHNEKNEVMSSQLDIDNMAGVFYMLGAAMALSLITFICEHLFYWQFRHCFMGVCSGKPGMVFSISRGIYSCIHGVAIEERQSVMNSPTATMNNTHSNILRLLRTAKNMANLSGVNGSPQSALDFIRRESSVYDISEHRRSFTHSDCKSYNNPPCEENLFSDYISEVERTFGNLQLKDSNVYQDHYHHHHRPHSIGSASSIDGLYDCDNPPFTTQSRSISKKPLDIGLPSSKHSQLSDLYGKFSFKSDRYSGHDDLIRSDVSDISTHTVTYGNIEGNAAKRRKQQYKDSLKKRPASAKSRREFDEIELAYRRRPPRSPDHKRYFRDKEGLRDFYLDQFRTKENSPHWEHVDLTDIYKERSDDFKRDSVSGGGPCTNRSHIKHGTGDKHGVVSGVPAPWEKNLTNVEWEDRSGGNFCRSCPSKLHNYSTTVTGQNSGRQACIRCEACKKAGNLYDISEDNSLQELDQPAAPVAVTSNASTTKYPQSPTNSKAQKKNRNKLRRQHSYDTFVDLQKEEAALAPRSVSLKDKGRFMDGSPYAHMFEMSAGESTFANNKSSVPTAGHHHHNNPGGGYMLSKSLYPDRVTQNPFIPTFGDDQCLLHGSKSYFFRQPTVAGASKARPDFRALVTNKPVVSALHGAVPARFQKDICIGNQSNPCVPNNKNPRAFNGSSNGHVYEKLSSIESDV
T1 sequence (Q13224 27-1484, other chains not shown): as above

SMILES	IC50 [1, 3]	IC50 [1, 4]	also measured
O=c1[nH]c2ncc(-c3cccc(Cl)c3Cl)cc2n1CC1CCN1 (racemic) [Example 268, (R/S)-1-(Azetidin-2-ylmethyl)-6-(2,3-dichlorophenyl)-3H-imidazo[4,5-b]pyridin-2-one]	0.041 µM	–	–
Cc1c(-c2cnc3c(c2)n(CC(O)CCO)c(=O)n3C)cccc1C(F)(F)F (racemic) [Example 399, (R/S)-1-(2,4-Dihydroxybutyl)-3-methyl-6-[2-methyl-3-(trifluoromethyl)phenyl]imidazo[4,5-b]pyridin-2-one]	–	5.1 µM	–
CCC(O)Cn1c(=O)[nH]c2ncc(-c3ccc(OC)cc3)cc21 (single isomer, unassigned) [Example 4, (S*)-1-(2-Hydroxybutyl)-6-(4-methoxyphenyl)-3H-imidazo[4,5-b]pyridin-2-one]	0.32 µM	–	–
[2H]C([2H])([2H])OCc1ccc(-c2cnc3c(c2)n(CC(=O)N2CCC2)c(=O)n3C)s1 [Example 122, 1-[2-(Azetidin-1-yl)-2-oxo-ethyl]-3-methyl-6-[5-(trideuteriomethoxymethyl)-2-thienyl]imidazo[4,5-b]pyridin-2-one]	1.22 µM	–	–
CCC(O)Cn1c(=O)[nH]c2ncc(-c3ccc(F)c(C)c3F)cc21 (racemic) [Example 336, (R/S)-6-(2,4-Difluoro-3-methyl-phenyl)-1-(2-hydroxybutyl)-3H-imidazo[4,5-b]pyridin-2-one]	–	0.015 µM	–
O=c1[nH]c2ncc(-c3ccc(F)cc3)cc2n1CC1CCN1 (racemic) [Example 266, (R/S)-1-(Azetidin-2-ylmethyl)-6-(4-fluorophenyl)-3H-imidazo[4,5-b]pyridin-2-one]	0.173 µM	–	–
Cn1c(=O)n(CC2CCO2)c2cc(-c3cccc(Cl)c3)cnc21 (racemic) [Example 397, (R/S)-6-(3-Chlorophenyl)-3-methyl-1-(oxetan-2-ylmethyl)imidazo[4,5-b]pyridin-2-one]	–	0.228 µM	–
CC(C)C(O)Cn1c(=O)[nH]c2ncc(-c3cccc(C(F)(F)F)c3)cc21 (racemic) [Example 338, (R/S)-1-(2-Hydroxy-3-methyl-butyl)-6-[3-(trifluoromethyl)phenyl]-3H-imidazo[4,5-b]pyridin-2-one]	–	0.687 µM	–
O=c1[nH]c2ncc(-c3cccc(C(F)(F)F)c3)cc2n1CC1CCCO1 (racemic) [Example 24, (R/S)-1-(Tetrahydrofuran-2-ylmethyl)-6-[3-(trifluoromethyl)phenyl]-3H-imidazo[4,5-b]pyridin-2-one]	0.127 µM	–	–
CCC(O)Cn1c(=O)[nH]c2ncc(-c3ccc(F)cc3C)cc21 (single isomer, unassigned) [Example 43, (R*)-6-(4-Fluoro-2-methyl-phenyl)-1-(2-hydroxybutyl)-3H-imidazo[4,5-b]pyridin-2-one]	–	–	IC50 ([1]; HTS assay buffer (1.5 mM MgCl2 dye loading; 150 mM NaCl, 3 mM KCl assay buffer), human GluN1/GluN2B cells, read-out: NR2B IC50 (μM) HTS assay): 3.49 µM
COc1ccc(-c2cnc3[nH]c(=O)n(CC(=O)C(C)(C)C)c3c2)cc1 [Example 601, 1-(3,3-Dimethyl-2-oxo-butyl)-6-(4-methoxyphenyl)-3H-imidazo[4,5-b]pyridin-2-one]	–	1.63 µM	–
CCC(O)Cn1c(=O)[nH]c2ncc(-c3cccc(C(F)(F)F)c3)cc21 (racemic) [Example 337, (R/S)-1-(2-Hydroxybutyl)-6-[3-(trifluoromethyl)phenyl]-3H-imidazo[4,5-b]pyridin-2-one]	–	0.119 µM	–
Cc1c(-c2cnc3c(c2)n(CC2CCO2)c(=O)n3C)cccc1C(F)(F)F (racemic) [Example 398, (R/S)-3-Methyl-6-[2-methyl-3-(trifluoromethyl)phenyl]-1-(oxetan-2-ylmethyl)imidazo[4,5-b]pyridin-2-one]	–	2.84 µM	–
COc1ccc(-c2cnc3[nH]c(=O)n(CC(=O)C(C)(C)C)c3c2)cc1C [Example 603, 1-(3,3-Dimethyl-2-oxo-butyl)-6-(4-methoxy-3-methyl-phenyl)-3H-imidazo[4,5-b]pyridin-2-one]	–	1.29 µM	–
Cn1c(=O)n(CC2CCO2)c2cc(-c3cccc(C(F)(F)F)c3)cnc21 (racemic) [Example 133, (R/S)-3-methyl-1-(oxetan-2-ylmethyl)-6-[3-(trifluoromethyl)phenyl]imidazo[4,5-b]pyridin-2-one]	0.211 µM	–	–
O=c1[nH]c2ncc(-c3ccc(F)c(C(F)(F)F)c3)cc2n1CC1CCO1 (racemic) [Example 271, (R/S)-6-[4-Fluoro-3-(trifluoromethyl)phenyl]-1-(oxetan-2-ylmethyl)-3H-imidazo[4,5-b]pyridin-2-one]	0.046 µM	–	–
O=c1[nH]c2ncc(-c3ccccc3)cc2n1CC1CCN1 (racemic) [Example 265, (R/S)-1-(Azetidin-2-ylmethyl)-6-phenyl-3H-imidazo[4,5-b]pyridin-2-one]	0.397 µM	–	–
CCC(O)Cn1c(=O)[nH]c2ncc(-c3cccc(C)c3)cc21 (racemic) [Example 335, (R/S)-1-(2-Hydroxybutyl)-6-(m-tolyl)-3H-imidazo[4,5-b]pyridin-2-one]	–	0.054 µM	–

SMILES	IC50 [1, 3]	IC50 [1, 4]	also measured
O=c1[nH]c2ncc(-c3cccc(C(F)(F)F)c3)cc2n1CC1CCO1 (single isomer, unassigned) [Example 224, (S*)-1-(Oxetan-2-ylmethyl)-6-[3-(trifluoromethyl)phenyl]-3H-imidazo[4,5-b]pyridin-2-one]	0.054 µM	–	–
Cn1c(=O)n(CC2CCO2)c2cc(-c3cccc(C(F)F)c3)cnc21 (racemic) [Example 394, (R/S)-6-[3-(Difluoromethyl)phenyl]-3-methyl-1-(oxetan-2-ylmethyl)imidazo [4,5-b]pyridin-2-one]	–	0.128 µM	–
COCCC(O)Cn1c(=O)n(C)c2ncc(-c3ccc(F)c(C)c3)cc21 (racemic) [Example 393, (R/S)-6-(4-Fluoro-3-methyl-phenyl)-1-(2-hydroxy-4-methoxy-butyl)-3-methyl-imidazo[4,5-b]pyridin-2-one]	–	0.486 µM	–
O=c1[nH]c2ncc(-c3cccc(C(F)(F)F)c3)cc2n1CC1CCO1 (racemic) [Example 216, (R/S)-1-(Oxetan-2-ylmethyl)-6-[3-(trifluoromethyl)phenyl]-3H-imidazo[4,5-b]pyridin-2-one]	0.034 µM	–	–
CC(C(=O)NC1CC1)n1c(=O)[nH]c2ncc(-c3cccc(C(F)(F)F)c3)cc21 (racemic) [Example 202, (R/S)—N-Cyclopropyl-2-[2-oxo-6-[3-(trifluoromethyl)phenyl]-3H-imidazo[4,5-b]pyridin-1-yl]propanamide]	7.32 µM	–	–
COc1ccc(-c2cnc3[nH]c(=O)n(Cc4ccccc4C#N)c3c2)cc1C [Example 608, 2-[[6-(4-Methoxy-3-methyl-phenyl)-2-oxo-3H-imidazo[4,5-b]pyridin-1-yl]methyl]benzonitrile]	–	1.02 µM	–
COc1ccc(-c2cnc3[nH]c(=O)n(CC(=O)C(C)(C)C)c3c2)cc1F [Example 609, 1-(3,3-Dimethyl-2-oxo-butyl)-6-(3-fluoro-4-methoxy-phenyl)-3H-imidazo[4,5-b]pyridin-2-one]	–	0.263 µM	–
Cc1cc(-c2cnc3c(c2)n(CC2CCO2)c(=O)n3C)ccc1F (racemic) [Example 395, (R/S)-6-(4-Fluoro-3-methyl-phenyl)-3-methyl-1-(oxetan-2-ylmethyl)imidazo[4,5-b]pyridin-2-one]	–	1.2 µM	–
Cn1c(=O)n(CC2CCN2)c2cc(-c3cccc(C(F)(F)F)c3)cnc21 (racemic) [Example 245, (R/S)-1-(Azetidin-2-ylmethyl)-3-methyl-6-[3-(trifluoromethyl)phenyl]imidazo[4,5-b]pyridin-2-one]	0.409 µM	–	–
Cc1cc(F)ccc1-c1cnc2c(c1)n(CC1CCO1)c(=O)n2C (racemic) [Example 33, (R/S)-6-(4-Fluoro-2-methyl-phenyl)-3-methyl-1-(oxetan-2-ylmethyl)imidazo[4,5-b]pyridin-2-one]	1.23 µM	–	–
Cc1cc(-c2cnc3c(c2)n(CC(=O)N2CCC2)c(=O)n3C)ccc1F [Example 410, 1-[2-(Azetidin-1-yl)-2-oxo-ethyl]-6-(4-fluoro-3-methyl-phenyl)-3-methyl-imidazo[4,5-b]pyridin-2-one]	–	0.013 µM	–
O=c1[nH]c2ncc(-c3cccc(C(F)(F)F)c3)cc2n1Cc1cnccn1 [Example 253, 1-(Pyrazin-2-ylmethyl)-6-[3-(trifluoromethyl)phenyl]-3H-imidazo[4,5-b]pyridin-2-one]	–	–	IC50 [2, 3]: 0.066 µM
CN(C)C(=O)Cn1c(=O)n(C)c2ncc(-c3ccc(F)c(OC(F)F)c3)cc21 [Example 587, 2-[6-[3-(Difluoromethoxy)-4-fluoro-phenyl]-3-methyl-2-oxo-imidazo[4,5-b]pyridin-1-yl]-N,N-dimethyl-acetamide]	–	–	IC50 [2, 4]: 0.035 µM
Cc1cc(-c2cnc3c(c2)n(Cc2ncccn2)c(=O)n3C)ccc1F [Example 49, 6-(4-Fluoro-3-methyl-phenyl)-3-methyl-1-(pyrimidin-2-ylmethyl)imidazo[4,5-b]pyridin-2-one]	–	–	IC50 [2, 3]: 0.486 µM
CCOc1ccccc1-c1cnc2[nH]c(=O)n(Cc3cc(C)on3)c2c1 [Example 517, 6-(2-Ethoxyphenyl)-1-[(5-methylisoxazol-3-yl)methyl]-3H-imidazo[4,5-b]pyridin-2-one]	–	–	IC50 [2, 4]: 0.709 µM
COCc1noc(Cn2c(=O)[nH]c3ncc(-c4ccc(F)c(F)c4)cc32)n1 [Example 145, 6-(3,4-Difluorophenyl)-1-[[3-(methoxymethyl)-1,2,4-oxadiazol-5-yl]methyl]-3H-imidazo[4,5-b]pyridin-2-one]	–	–	IC50 [2, 3]: 1.31 µM
COc1cc(F)ccc1-c1cnc2[nH]c(=O)n(CC(N)=O)c2c1 [Example 433, 2-[6-(4-Fluoro-2-methoxy-phenyl)-2-oxo-3H-imidazo[4,5-b]pyridin-1-yl]acetamide]	–	–	IC50 ([2]; HTS assay buffer (1.5 mM MgCl2 in dye loading buffer; 150 mM NaCl, 3 mM KCl in assay buffer), human GluN1/GluN2B, read-out: NR2B IC50 (μM) HTS assay): 0.867 µM
Cc1c(F)ccc(-c2cnc3c(c2)n(Cc2cccnn2)c(=O)n3C)c1F [Example 67, 6-(2,4-Difluoro-3-methyl-phenyl)-3-methyl-1-(pyridazin-3-ylmethyl)imidazo[4,5-b]pyridin-2-one]	–	–	IC50 [2, 3]: 0.009 µM
